# According to US11690860B2, “Treatment of HCV infected patients with cirrhosis” (Atea Pharmaceuticals, Inc., priority 2018, dated 2023):
# “Also recorded” adds a separate entry of the source. Like-named read-outs stand apart in the source and are kept apart here.
# How the values were obtained:
# HCV GT3 replicons = assay: EC95 in replicons containing HCV constructs of clinical isolates, GT3; assay type: cell-based; settings: HCV GT3, expressed as equivalents of metabolite 1-7
# Protocol: (§1) For rapidly-replicating viruses such as HCV, maintenance of antiviral activity throughout inter-dose time intervals optimizes efficacy by reducing chances for recrudescent viral replication during inter-dose trough periods. […] In those cohorts receiving 600 mg QD, ˜30% of subjects achieved HCV RNA below the lower limit of quantitation with only seven days of therapy.
# HCV GT2 replicons = assay: EC95 in replicons containing HCV constructs of clinical isolates, GT2; assay type: cell-based; settings: HCV GT2, expressed as equivalents of metabolite 1-7
# Protocol: as §1
# [1] = Plasma pharmacokinetics of Compound 1 and metabolite 1-7 (LC-MS/MS) in Parts C, D and E; assay type: in vivo, human; settings: for AUC Day 1 (AUCinf for Compound 1) / Cmax / half-life / Tmax / AUC SS (AUCinf for Compound 1): n=6; for Cmax / half-life / Tmax: human, in vivo
# Protocol: Doses were administered as the Compound 2 salt base. The free base Compound 1 equivalent is often given in parenthesis.
# Part C was a randomized, double-blind, placebo-controlled MAD study divided into three cohorts. […] The dose escalation only proceeded following satisfactory review of the data.
# HCV-infected patients were treatment-naïve with HCV RNA ≥5 log 10 IU/mL. HCV RNA was quantified using COBAS® AmpliPrep TaqMAN® v2.0 with LLQ of 15 IU/mL. Plasma drug levels were measured using LC-MS/MS. […] Cirrhosis was confirmed by prior liver biopsy or Fibroscan >12.5 kPa. […] Mean ages of enrolled subjects were 44, 39, and 56 years in the non-cirrhotic GT1b 600 mg dose cohort, non-cirrhotic GT3 cohort, and the cirrhotic cohort, respectively.
# Plasma levels of metabolite 1-7 were measured using LC-MS/MS.
# [2] = Part C, daily dosing for 7 days
smiles,measurement,setting,value
"CNc1nc(N)nc2c1ncn2[C@@H]1O[C@H](CO[P@@](=O)(N[C@@H](C)C(=O)OC(C)C)Oc2ccccc2)[C@@H](O)[C@@]1(C)F [Compound 1, isopropyl((S)-(((2R,3R,4R,5R)-5-(2-amino-6-(methylamino)-9H-purin-9-yl)-4-fluoro-3-hydroxy-4-methyltetrahydrofuran-2-yl)methoxy)(phenoxy)phosphoryl)-L-alaninate]",EC95,HCV GT3 replicons,~0.018 µg/mL
same,EC95,HCV GT2 replicons,~0.012 µg/mL
same,PK in cirrhotic compared with non-cirrhotic subjects,"[1]; 600 mg QD of Compound 2, Parts C/D vs Part E",comparable
same,dose proportionality of plasma exposure (peak and total),"[1]; Part C, 150 to 600 mg Compound 2",slightly more than dose proportional from 150 mg to 300 mg and mostly dose proportional thereafter
same,AUC Day 1 (AUCinf for Compound 1),"[1]; Part C, NC GT1b, 150 mg/d Compound 2 QD",492 ± 141 ng/mLxh
same,AUC Day 1 (AUCinf for Compound 1),"[1]; Part C, NC GT1b, 300 mg/d Compound 2 QD",1947 ± 1120 ng/mLxh
same,AUC Day 1 (AUCinf for Compound 1),"[1]; Part C, NC GT1b, 600 mg/d Compound 2 QD",3335 ± 1502 ng/mLxh
same,accumulation,[1]; [2],did not accumulate over time
same,half-life (in words),[1]; [2],short half-life
same,AUC Day 1 (AUCinf for Compound 1),"[1]; Part D, NC GT3, 600 mg/d Compound 2 QD",3333 ± 1241 ng/mLxh
same,AUC Day 1 (AUCinf for Compound 1),"[1]; Part E, Child-Pugh A cirrhotic, 600 mg/d Compound 2 QD",3323 ± 1467 ng/mLxh
same,absorption,"[1]; after administration of Compound 2, fasted state",rapidly and well-absorbed; also recorded: quickly absorbed
same,estimated fraction absorbed,[1]; based on urine recovery,~50%
same,Cmax,"[1]; 150 mg/d, Part C, NC GT1b, 150 mg/d Compound 2 QD, read-out: Cmax Day 1",573 ± 280 ng/mL
same,half-life,"[1]; 150 mg/d, Part C, NC GT1b, 150 mg/d Compound 2 QD, read-out: T1/2 Day 1 (converted)",37.2 min
same,Tmax,"[1]; 150 mg/d, Part C, NC GT1b, 150 mg/d Compound 2 QD, read-out: Tmax Day 1",30 min
same,Cmax,"[1]; 150 mg/d, steady state, Part C, NC GT1b, 150 mg/d Compound 2 QD, read-out: Cmax SS",462 ± 409 ng/mL
same,half-life,"[1]; 150 mg/d, steady state, Part C, NC GT1b, 150 mg/d Compound 2 QD, read-out: T1/2 SS (converted)",38.4 min
same,Tmax,"[1]; 150 mg/d, steady state, Part C, NC GT1b, 150 mg/d Compound 2 QD, read-out: Tmax SS",60 min
same,Cmax,"[1]; 300 mg/d, Part C, NC GT1b, 300 mg/d Compound 2 QD, read-out: Cmax Day 1",2280 ± 893 ng/mL
same,half-life,"[1]; 300 mg/d, Part C, NC GT1b, 300 mg/d Compound 2 QD, read-out: T1/2 Day 1 (converted)",48 min
same,Tmax,"[1]; 300 mg/d, Part C, NC GT1b, 300 mg/d Compound 2 QD, read-out: Tmax Day 1",30 min
same,Cmax,"[1]; 300 mg/d, steady state, Part C, NC GT1b, 300 mg/d Compound 2 QD, read-out: Cmax SS",1830 ± 1310 ng/mL
same,half-life,"[1]; 300 mg/d, steady state, Part C, NC GT1b, 300 mg/d Compound 2 QD, read-out: T1/2 SS (converted)",43.8 min
same,Tmax,"[1]; 300 mg/d, steady state, Part C, NC GT1b, 300 mg/d Compound 2 QD, read-out: Tmax SS",30 min
same,Cmax,"[1]; 600 mg/d, Part C, NC GT1b, 600 mg/d Compound 2 QD, read-out: Cmax Day 1",4210 ± 2300 ng/mL
same,half-life,"[1]; 600 mg/d, Part C, NC GT1b, 600 mg/d Compound 2 QD, read-out: T1/2 Day 1 (converted)",51.6 min
same,Tmax,"[1]; 600 mg/d, Part C, NC GT1b, 600 mg/d Compound 2 QD, read-out: Tmax Day 1",30 min
same,Cmax,"[1]; 600 mg/d, Part D, NC GT3, 600 mg/d Compound 2 QD, read-out: Cmax Day 1",3970 ± 1940 ng/mL
same,half-life,"[1]; 600 mg/d, Part D, NC GT3, 600 mg/d Compound 2 QD, read-out: T1/2 Day 1 (converted)",43.8 min
same,Tmax,"[1]; 600 mg/d, Part D, NC GT3, 600 mg/d Compound 2 QD, read-out: Tmax Day 1",30 min
same,Cmax,"[1]; 600 mg/d, Part E, Child-Pugh A cirrhotic, 600 mg/d Compound 2 QD, read-out: Cmax Day 1",3410 ± 2180 ng/mL
same,half-life,"[1]; 600 mg/d, Part E, Child-Pugh A cirrhotic, 600 mg/d Compound 2 QD, read-out: T1/2 Day 1 (converted)",51.6 min
same,Tmax,"[1]; 600 mg/d, Part E, Child-Pugh A cirrhotic, 600 mg/d Compound 2 QD, read-out: Tmax Day 1",30 min
same,Cmax,"[1]; 600 mg/d, steady state, Part C, NC GT1b, 600 mg/d Compound 2 QD, read-out: Cmax SS",3600 ± 1740 ng/mL
same,half-life,"[1]; 600 mg/d, steady state, Part C, NC GT1b, 600 mg/d Compound 2 QD, read-out: T1/2 SS (converted)",51 min
same,Tmax,"[1]; 600 mg/d, steady state, Part C, NC GT1b, 600 mg/d Compound 2 QD, read-out: Tmax SS",30 min
same,Cmax,"[1]; 600 mg/d, steady state, Part D, NC GT3, 600 mg/d Compound 2 QD, read-out: Cmax SS",4140 ± 2280 ng/mL
same,half-life,"[1]; 600 mg/d, steady state, Part D, NC GT3, 600 mg/d Compound 2 QD, read-out: T1/2 SS (converted)",49.8 min
same,Tmax,"[1]; 600 mg/d, steady state, Part D, NC GT3, 600 mg/d Compound 2 QD, read-out: Tmax SS",30 min
same,Cmax,"[1]; 600 mg/d, steady state, Part E, Child-Pugh A cirrhotic, 600 mg/d Compound 2 QD, read-out: Cmax SS",3190 ± 2080 ng/mL
same,half-life,"[1]; 600 mg/d, steady state, Part E, Child-Pugh A cirrhotic, 600 mg/d Compound 2 QD, read-out: T1/2 SS (converted)",48.6 min
same,Tmax,"[1]; 600 mg/d, steady state, Part E, Child-Pugh A cirrhotic, 600 mg/d Compound 2 QD, read-out: Tmax SS",30 min
same,AUC SS (AUCinf for Compound 1),"[1]; steady state, Part C, NC GT1b, 150 mg/d Compound 2 QD",475 ± 301 ng/mLxh
same,AUC SS (AUCinf for Compound 1),"[1]; steady state, Part C, NC GT1b, 300 mg/d Compound 2 QD",1510 ± 976 ng/mLxh
same,AUC SS (AUCinf for Compound 1),"[1]; steady state, Part C, NC GT1b, 600 mg/d Compound 2 QD",4036 ± 2093 ng/mLxh
same,AUC SS (AUCinf for Compound 1),"[1]; steady state, Part D, NC GT3, 600 mg/d Compound 2 QD",3754 ± 2275 ng/mLxh
same,AUC SS (AUCinf for Compound 1),"[1]; steady state, Part E, Child-Pugh A cirrhotic, 600 mg/d Compound 2 QD",3527 ± 1605 ng/mLxh
